Measured values: EP0415219A1, “ANF-Antagonist” (F. HOFFMANN-LA ROCHE AG, priority 1989, dated 1991)
Where a SMILES comes first, the peptide text is derived from it. Bridges are numbered along the chain shown (N, C = ends).

Tests used:
[1] = biological target: ANF Rezeptor (Membranpräparation von Rindernebennieren); assay: Binding test: displacement of radiolabelled ANF from its receptor (membrane preparation of bovine adrenal glands); set-up: species or system Rind; conditions: inhibition of ¹²⁵I-ANF (18,2 pM) binding, 24 h at 4°C; read-out: IC₅₀
Description: In einem Bindungstest nach Bürgisser et al. [Biochem. Biophys. Res. Comm. 133, 1201 (1985)] wurde die Verdrängung von radioaktiv-markiertem ANF von dessen Rezeptor durch den ANF-Antagonisten gemessen. Als Rezeptorpräparation wurde eine Membranpräparation von Rindernebennieren verwendet. Zu 100 µl dieser Präparation in 50 mM Tris/HCl, 500 mM MgCl₂, 1 mM EDTA. 0,5% Rinderserumalbumin und 1 mM o-Phenanthrolin, pH 7,6, wurden ¹²⁵I-ANF (20'000 cpm. 18,2 pM) in 145 µl dieses Puffers und der Ligand in 5 µl Dimethylsulfoxid gegeben. Diese Mischung wurde 24 Stunden bei 4°C inkubiert und gebundenes von freiem ANF durch schnelle Filtration über Whatman GF/C Glasfaserfilter abgetrennt. Nach dreimaligem Waschen der Filter mit obigem Puffer (3 x 4 ml) wurden die Filter zerschnitten und deren Radioaktivität im Gamma-Zähler gemessen. Die Inhibition der Bindung wurde quantitativ mit der IC₅₀ erfasst, worunter diejenige Konzentration an entsprechendem Liganden zu verstehen ist, bei der die Bindung von ¹²⁵I-ANF halbmaximal gehemmt wird. Tabelle

[2] = test system: SPF-Ratten ohne zentrale Reflexe ("pithed rats"); assay: In vivo blood pressure in anaesthetised pithed SPF rats under angiotensin II infusion; conditions: Angiotensin II 0,15 µg/kg/min, 1 mg/kg i.v. after bolus of 10 µg/kg ANF
Description: (§1) Für die in vivo Versuche wurden 20 Wochen alte spontanhypertensive Ratten (SHR) oder normotensive pathogen-freie (SPF) Ratten verwendet. In wache SHR wurde 2.5 µg/kg/min ANF infundiert, was den Blutdruck um 45 mm Hg senkte. Eine anschliessende Bolusgabe von 1 mg/kg ANF-Antagonist erhöhte den Blutduck wiederum auf den Ausgangswert von 220 mm Hg. Anästhesierten SPF-Ratten ohne zentrale Reflexe ("pithed rats") wurde Angiotensin II (0,15 µg/kg/min) infundiert, um den Blutdruck auf 100-110 mm Hg anzuheben. Dann wurde ein Bolus von 10 µg/kg ANF gegeben. was den Blutdruck um 20 mm Hg senkte. […] Diese Versuche zeigen, dass der Blutdruckanstieg unter dem ANF-Antagonisten nicht auf eine Aktivierung von symphatischen Reflexen, sondern auf die Wirkung eines ANF-Antagonisten zurückzuführen ist.

[3] = test system: spontanhypertensive Ratten (SHR); assay: In vivo blood pressure in conscious SHR under ANF infusion; conditions: bolus 1 mg/kg after ANF infusion 2.5 µg/kg/min
Description: as §1

| IC50 [1] | SMILES | Blutdruck nach intravenöser Gabe [2] | Blutdruck nach Bolusgabe (erhöht auf den Ausgangswert) [3] |
| --- | --- | --- | --- |
| 2500 nM | CC[C@H](C)[C@@H]1NC(=O)[C@H](Cc2ccccc2)NC(=O)CNC(=O)C[C@@H](C(=O)N[C@H](C(=O)N[C@@H](Cc2ccccc2)C(=O)NCC(=O)N[C@@H](Cc2c[nH]cn2)C(=O)N[C@@H](Cc2ccc(O)cc2)C(=O)N[C@@H](CO)C(=O)NCC(=O)N[C@@H](CC(=O)OC)C(=O)N[C@@H](Cc2ccccc2)C(=O)OC)[C@@H](C)CC)NC(=O)[C@H](CC(N)=O)NC(=O)CNC(=O)[C@H](Cc2c[nH]c3ccccc23)NC(=O)CNC1=O [Dimethylester] (GFIGWGNDIFGHYSGD(OMe)F-OMe; lactam N-8) |  |  |
| 860 nM | CC[C@H](C)[C@@H]1NC(=O)[C@H](Cc2ccccc2)NC(=O)CNC(=O)C[C@@H](C(=O)N[C@H](C(=O)N[C@@H](Cc2ccccc2)C(=O)NCC(=O)N[C@@H](Cc2c[nH]cn2)C(=O)N[C@@H](Cc2ccc(O)cc2)C(=O)N[C@@H](CO)C(=O)NCC(=O)N[C@@H](CC(=O)O)C(=O)N[C@@H](Cc2ccccc2)C(=O)O)[C@@H](C)CC)NC(=O)[C@H](CC(N)=O)NC(=O)CNC(=O)[C@H](Cc2c[nH]c3ccccc23)NC(=O)CNC1=O [ANF-Antagonist] (GFIGWGNDIFGHYSGDF-OH; lactam N-8; C-terminus assumed) | erhöhte den Blutdruck wiederum auf den Ausgangswert | 220 mm Hg |
